Source: paper PMC9233935 (Journal of medicinal chemistry, 2022)
Converted amounts (≈) assume the structure as drawn. Read-outs that look alike come from different tables or passages of the source.

Assays:
Mtb gyrase = Mtb gyrase (Mycobacterium tuberculosis, UniProt P9WG45+P9WG47); assay: biochemical; assay type: biochemical
M. tuberculosis H37Rv = assay: microbe, parasite or virus in culture; assay type: cell-based, Mycobacterium tuberculosis; settings: for MIC: Mycobacterium tuberculosis, H37RV, read-out: Mtb MIC

Chain of Mtb gyrase (P9WG45 whole entry, looked up): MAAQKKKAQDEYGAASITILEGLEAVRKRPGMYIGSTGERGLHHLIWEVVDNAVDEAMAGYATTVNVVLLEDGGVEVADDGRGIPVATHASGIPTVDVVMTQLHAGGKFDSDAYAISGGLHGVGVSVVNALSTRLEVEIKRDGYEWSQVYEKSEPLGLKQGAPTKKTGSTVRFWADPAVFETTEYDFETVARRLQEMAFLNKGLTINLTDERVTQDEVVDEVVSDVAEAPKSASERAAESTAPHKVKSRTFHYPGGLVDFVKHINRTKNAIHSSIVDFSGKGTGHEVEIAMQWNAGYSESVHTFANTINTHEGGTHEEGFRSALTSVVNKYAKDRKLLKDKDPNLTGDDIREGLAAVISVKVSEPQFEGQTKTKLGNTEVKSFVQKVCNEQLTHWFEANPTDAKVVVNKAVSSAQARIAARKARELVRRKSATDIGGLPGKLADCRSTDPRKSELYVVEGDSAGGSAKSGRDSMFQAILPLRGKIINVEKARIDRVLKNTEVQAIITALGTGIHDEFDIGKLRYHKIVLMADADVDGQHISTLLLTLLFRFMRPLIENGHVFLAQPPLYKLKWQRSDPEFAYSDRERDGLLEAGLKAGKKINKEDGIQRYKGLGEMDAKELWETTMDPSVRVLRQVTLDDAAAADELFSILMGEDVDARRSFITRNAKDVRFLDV
Chain of Mtb gyrase (P9WG47 whole entry, looked up): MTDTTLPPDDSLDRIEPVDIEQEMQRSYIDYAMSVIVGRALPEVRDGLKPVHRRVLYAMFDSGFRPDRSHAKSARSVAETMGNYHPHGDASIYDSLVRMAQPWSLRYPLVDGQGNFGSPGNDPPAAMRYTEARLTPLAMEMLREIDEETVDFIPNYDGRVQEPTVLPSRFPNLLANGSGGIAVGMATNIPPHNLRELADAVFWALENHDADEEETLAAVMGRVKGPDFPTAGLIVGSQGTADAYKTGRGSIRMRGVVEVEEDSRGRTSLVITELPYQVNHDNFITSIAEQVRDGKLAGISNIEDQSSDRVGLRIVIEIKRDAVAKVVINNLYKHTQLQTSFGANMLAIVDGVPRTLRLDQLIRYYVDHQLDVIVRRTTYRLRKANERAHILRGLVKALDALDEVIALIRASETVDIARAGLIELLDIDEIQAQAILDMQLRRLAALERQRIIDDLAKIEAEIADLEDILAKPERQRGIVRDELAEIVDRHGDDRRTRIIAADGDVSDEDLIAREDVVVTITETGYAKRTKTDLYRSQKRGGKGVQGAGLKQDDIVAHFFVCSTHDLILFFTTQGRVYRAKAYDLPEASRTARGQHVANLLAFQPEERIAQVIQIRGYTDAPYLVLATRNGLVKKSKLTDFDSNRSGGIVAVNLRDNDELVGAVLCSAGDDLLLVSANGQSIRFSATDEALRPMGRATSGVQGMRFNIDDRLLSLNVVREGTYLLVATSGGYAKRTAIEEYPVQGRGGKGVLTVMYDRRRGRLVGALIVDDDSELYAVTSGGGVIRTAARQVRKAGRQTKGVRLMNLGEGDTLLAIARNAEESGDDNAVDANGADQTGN

## C[C@@H]1CN2c3c(cc4c(OC[C@@H]5CCC(=O)N5)noc4c3F)CC3(C(=O)NC(=O)NC3=O)[C@H]2[C@H](C)N1C#N [Compound 42, (2R,4S,4aS)-11-fluoro-2,4-dimethyl-2’,4’,6’-trioxo-8-(((S)-5-oxopyrrolidin-2-yl)methoxy)-1,1’,2,3’,4,4a,4’,6’-octahydro-2’H,3H,6H-spiro[isoxazolo[4,5-g]pyrazino[1,2-a]quinoline-5,5’-pyrimidine]-3-carbonitrile]
Mtb gyrase
  IC50: 2.6 µM

## C[C@@H]1CN2c3c(cc4c(N5CC[C@H](CO)C5)noc4c3F)CC3(C(=O)NC(=O)NC3=O)[C@H]2[C@H](C)O1 [Compound 14, (2R,4S,4aS)-11-fluoro-8-((S)-3-(hydroxymethyl)pyrrolidin-1-yl)-2,4-dimethyl-1,2,4,4a-tetrahydro-2’H,6H-spiro[isoxazolo[4,5-g][1,4]oxazino[4,3-a]quinoline-5,5’-pyrimidine]-2’,4’,6’(1’H,3’H)-trione]
Mtb gyrase
  Mtb gyrase IC50 fold higher (less potent) than moxifloxacin: ≤ 2 fold

## C[C@@H]1CN2c3c(cc4c(OC[C@H]5COC(=O)N5)noc4c3F)CC3(C(=O)NC(=O)NC3=O)[C@H]2[C@H](C)O1 [Compound 29, (2R,4S,4aS)-11-fluoro-2,4-dimethyl-8-(((S)-2-oxooxazolidin-4-yl)methoxy)-1,2,4,4a-tetrahydro-2’H,6H-spiro[isoxazolo[4,5-g][1,4]oxazino[4,3-a]quinoline-5,5’-pyrimidine]-2’,4’,6’(1’H,3’H)-trione]
M. tuberculosis H37Rv
  Mtb MIC: 2.0 µM
  MIC: 2 µM (≈ 1.01 µg/mL)

## CC(=O)N1[C@H](C)CN2c3c(cc4c(N5C(=O)OC[C@@H]5C)noc4c3F)CC3(C(=O)NC(=O)NC3=O)[C@H]2[C@@H]1C [Compound 36, (2R,4S,4aS)-3-acetyl-11-fluoro-2,4-dimethyl-8-((S)-4-methyl-2-oxooxazolidin-3-yl)-2,3,4,4a-tetrahydro-1H,2’H,6H-spiro[isoxazolo[4,5-g]pyrazino[1,2-a]quinoline-5,5’-pyrimidine]-2’,4’,6’(1’H,3’H)-trione]
Mtb gyrase
  IC50: > 1000 µM

## C[C@@H]1CN2c3c(cc4c(OC[C@H]5CCC(=O)O5)noc4c3F)CC3(C(=O)NC(=O)NC3=O)[C@H]2[C@H](C)O1 [Compound 27, (2R,4S,4aS)-11-fluoro-2,4-dimethyl-8-(((R)-5-oxotetrahydrofuran-2-yl)methoxy)-1,2,4,4a-tetrahydro-2’H,6H-spiro[isoxazolo[4,5-g][1,4]oxazino[4,3-a]quinoline-5,5’-pyrimidine]-2’,4’,6’(1’H,3’H)-trione]
M. tuberculosis H37Rv
  fold less active against Mtb than 23: 2- to 4 fold

## C[C@@H]1CN2c3c(cc4c(N5C(=O)OC[C@@H]5C)noc4c3F)CC3(C(=O)NC(=O)NC3=O)[C@H]2[C@H](C)O1 [Zoliflodacin 4, zoliflodacin, reference compound]
M. tuberculosis H37Rv
  MIC: 7 µM (≈ 3.41 µg/mL)

## Cc1nnc(-c2noc3c(F)c4c(cc23)CC2(C(=O)NC(=O)NC2=O)[C@H]2[C@H](C)[C@@H](O)[C@H](C)CN42)o1 [Compound 45, (2R,3S,4S,4aR)-11-fluoro-3-hydroxy-2,4-dimethyl-8-(5-methyl-1,3,4-oxadiazol-2-yl)-2,3,4,4a-tetrahydro-1H,2’H,6H-spiro[isoxazolo[4,5-g]pyrido[1,2-a]quinoline-5,5’-pyrimidine]-2’,4’,6’(1’H,3’H)-trione]
M. tuberculosis H37Rv
  fold reduction in Mtb activity relative to matched pair 5: 10 fold

## C[C@@H]1CN2c3c(cc4c(-n5cncn5)noc4c3F)CC3(C(=O)NC(=O)NC3=O)[C@H]2[C@H](C)N1C#N [Compound 39, 11-fluoro-2,4-dimethyl-2’,4’,6’-trioxo-8-(1H-1,2,4-triazol-1-yl)-1,1’,2,3’,4,4a,4’,6’-octahydro-2’H,3H,6H-spiro[isoxazolo[4,5-g]pyrazino[1,2-a]quinoline-5,5’-pyrimidine]-3-carbonitrile]
M. tuberculosis H37Rv
  fold more active against Mtb than matched pair 7: 2 fold
M. tuberculosis H37Rv; 192 h
  MIC: 0.9 µM (≈ 0.431 µg/mL)

## C[C@@H]1CN2c3c(cc4c(N5C(=O)OC[C@@H]5C)noc4c3F)CC3(C(=O)NC(=O)NC3=O)[C@H]2[C@H](C)N1C#N [Compound 38, (2R,4S,4aS)-11-fluoro-2,4-dimethyl-8-((S)-4-methyl-2-oxooxazolidin-3-yl)-2’,4’,6’-trioxo-1,1’,2,3’,4,4a,4’,6’-octahydro-2’H,3H,6H-spiro[isoxazolo[4,5-g]pyrazino[1,2-a]quinoline-5,5’-pyrimidine]-3-carbonitrile]
M. tuberculosis H37Rv
  fold more active against Mtb than matched pair zoliflodacin: ~2 fold

## C[C@@H]1CN2c3c(cc4c(N5CC[C@@](C)(O)C5)noc4c3F)CC3(C(=O)NC(=O)NC3=O)[C@H]2[C@H](C)O1 [Compound 15, 11-fluoro-8-(3-hydroxy-3-methylpyrrolidin-1-yl)-2,4-dimethyl-1,2,4,4a-tetrahydro-2’H,6H-spiro[isoxazolo[4,5-g][1,4]oxazino[4,3-a]quinoline-5,5’-pyrimidine]-2’,4’,6’(1’H,3’H)-trione]
M. tuberculosis H37Rv; 192 h
  MIC: > 125 µM

## C[C@@H]1CN2c3c(cc4c(N5C(=O)OC[C@@H]5C)noc4c3F)CC3(C(=O)NC(=O)NC3=O)[C@H]2[C@H](C)N1O [Compound 35, (2R,4S,4aS)-11-fluoro-3-hydroxy-2,4-dimethyl-8-((S)-4-methyl-2-oxooxazolidin-3-yl)-2,3,4,4a-tetrahydro-1H,2’H,6H-spiro[isoxazolo[4,5-g]pyrazino[1,2-a]quinoline-5,5’-pyrimidine]-2’,4’,6’(1’H,3’H)-trione]
Mtb gyrase
  IC50: 207 µM

## C[C@@H]1CN2c3c(cc4c(OC[C@@H]5CCC(=O)O5)noc4c3F)CC3(C(=O)NC(=O)NC3=O)[C@H]2[C@H](C)O1 [Compound 26, (2R,4S,4aS)-11-fluoro-2,4-dimethyl-8-(((S)-5-oxotetrahydrofuran-2-yl)methoxy)-1,2,4,4a-tetrahydro-2’H,6H-spiro[isoxazolo[4,5-g][1,4]oxazino[4,3-a]quinoline-5,5’-pyrimidine]-2’,4’,6’(1’H,3’H)-trione]
M. tuberculosis H37Rv
  fold less active against Mtb than 23: 2- to 4 fold

## C[C@@H]1CN2c3c(cc4c(OC[C@@H]5CCC(=O)N5C)noc4c3F)CC3(C(=O)NC(=O)NC3=O)[C@H]2[C@H](C)O1 [Compound 25, (2R,4S,4aS)-11-fluoro-2,4-dimethyl-8-(((S)-1-methyl-5-oxopyrrolidin-2-yl)methoxy)-1,2,4,4a-tetrahydro-2’H,6H-spiro[isoxazolo[4,5-g][1,4]oxazino[4,3-a]quinoline-5,5’-pyrimidine]-2’,4’,6’(1’H,3’H)-trione]
M. tuberculosis H37Rv
  fold less active against Mtb than 23: 4 fold

## C[C@@H]1CN2c3c(cc4c(OCC[C@@H]5CCC(=O)N5)noc4c3F)CC3(C(=O)NC(=O)NC3=O)[C@H]2[C@H](C)O1 [Compound 32, (2R,4S,4aS)-11-fluoro-2,4-dimethyl-8-(2-((S)-5-oxopyrrolidin-2-yl)ethoxy)-1,2,4,4a-tetrahydro-2’H,6H-spiro[isoxazolo[4,5-g][1,4]oxazino[4,3-a]quinoline-5,5’-pyrimidine]-2’,4’,6’(1’H,3’H)-trione]
M. tuberculosis H37Rv
  fold less active against Mtb than 23: ~ 4 fold

## C[C@@H]1CN2c3c(cc4c(OC[C@H]5CNC(=O)C5)noc4c3F)CC3(C(=O)NC(=O)NC3=O)[C@H]2[C@H](C)O1 [Compound 31, (2R,4S,4aS)-11-fluoro-2,4-dimethyl-8-(((R)-5-oxopyrrolidin-3-yl)methoxy)-1,2,4,4a-tetrahydro-2’H,6H-spiro[isoxazolo[4,5-g][1,4]oxazino[4,3-a]quinoline-5,5’-pyrimidine]-2’,4’,6’(1’H,3’H)-trione]
M. tuberculosis H37Rv
  Mtb MIC: 2.0 µM
  MIC: 2 µM (≈ 1 µg/mL)
